Source: publication PMC12751012, “Nanoscale Direct-to-Biology Optimization and Structural Insights into Selective S. aureus TrmD Inhibitors” (Journal of Medicinal Chemistry, 2025)
Several values for one entry are separate records, joined by “and”; a condition that tells them apart may be missing. Identical values can stand only once. Counter-ions that a name gives are not always drawn.

Experiments:
Format in all cases: binding
S. aureus TrmD [1] = target: T1, S. aureus TrmD (Staphylococcus aureus, UniProt Q2FZ43); test: Fluorescence polarization (FP) assay, tracer 4, S. aureus TrmD
T1 construct: made in house; host or cells: E. coli BL21
T1 sequence (Q2FZ43 1-245): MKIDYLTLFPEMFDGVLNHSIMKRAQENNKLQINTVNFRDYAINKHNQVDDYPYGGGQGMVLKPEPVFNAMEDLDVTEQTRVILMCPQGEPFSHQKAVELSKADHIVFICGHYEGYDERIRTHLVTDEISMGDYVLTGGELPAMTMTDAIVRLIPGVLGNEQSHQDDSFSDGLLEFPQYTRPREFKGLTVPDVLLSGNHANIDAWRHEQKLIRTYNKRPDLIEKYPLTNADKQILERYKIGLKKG
Procedure: To enable the screening of hundreds of nanomole-scale synthesized compounds, the implementation of a high-throughput-capable RNA methyltransferase (MTase) assay is considered fundamental. […] In this assay format, a fluorescent, SAM-pocket binding tracer can be displaced by the compound under investigation, and the resulting change in fluorescence polarization defines the read-out of the inhibitor compound’s affinity (Figure A).
(§1) Fluorescence polarization (FP) assays were performed as follows. The assays for H. influenzae TrmD have been described previously. All assays were conducted in technical triplicate using black 96-well half area plates. For the FP assays, a tracer (20 nM Cy5TPD for E. coli and H. influenzae TrmD, 10 nM tracer 4 for S. aureus TrmD) was mixed with the respective enzyme (2 μM E. coli TrmD, 2 μM H. influenzae TrmD, 500 nM S. aureus TrmD) in buffer (E. coli and H. influenzae TrmD: 50 mM HEPES, 500 mM NaCl, 5% Glycerol, pH 7.5, S. aureus TrmD: 40 mM Tris HCl, 100 mM NaCl, 10 mM MgCl2, 5% Glycerol, pH 7.5). The compounds were added in varying concentrations for K D-value determination. […] The Z-factor for tracer 4 was determined by measuring 48 replicates of the free tracer (positive controls, PC) and 48 replicates of a mixture of enzyme and tracer (negative controls, NC). The Z-factor is defined in terms of the means (μ) and standard deviations (σ) of the positive and negative controls and calculated as Z = 1–(3*(σnc + σpc)/(μnc–μpc)). […] Polarization values (mP) were determined from polarization-specific parallel and orthogonal fluorescence intensities. K D-values were calculated in GraphPad Prism 8.0.1 using the four-parameter Hill equation: y(% tracer bound) = bottom + ([ligand]-slope) × (top–bottom)/([ligand]-slope + K Dslope).

H. influenzae TrmD [2] = target: T2, H. influenzae TrmD (Haemophilus influenzae, UniProt P43912); test: Isothermal titration calorimetry (ITC) on H. influenzae TrmD
T2 construct: host or cells: E. coli BL21
T2 sequence (P43912 whole entry): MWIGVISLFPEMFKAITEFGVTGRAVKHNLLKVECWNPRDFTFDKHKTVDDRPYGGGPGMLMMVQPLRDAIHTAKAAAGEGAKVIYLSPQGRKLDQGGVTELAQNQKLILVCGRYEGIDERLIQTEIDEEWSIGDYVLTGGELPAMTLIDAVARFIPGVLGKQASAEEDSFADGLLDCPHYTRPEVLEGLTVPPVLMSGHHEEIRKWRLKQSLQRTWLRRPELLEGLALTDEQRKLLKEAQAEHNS
Procedure: (§2) Experiments were conducted in the S. aureus TrmD SEC buffer (40 mM Tris, pH 7.5, 100 mM NaCl, 10 mM MgCl2, 5% glycerol) for the S. aureus enzyme. The H. influenzae enzyme was buffer exchanged into its ITC buffer (50 mM HEPES, pH 7.5; 500 mM NaCl; 5% glycerol) using Amicon Ultra-15 centrifugal filter units (Merck) prior to use. Compound 1 (BLD Pharmatech) and compound 2 were dissolved in DMSO to a final concentration of 20.0 and 11.6 mM, respectively, and diluted in ITC buffer to give ligand solutions at 1 and 0.58 mM, respectively. Due to a low enthalpy signal, a low c-value titration was performed for compound 1. In this type of experiment, the ligand is typically added at high concentration and in large excess relative to its binding partner, driving more binding events per injection. This causes the equivalence point to be reached after only a few injections and leads to the loss of the characteristic sigmoidal binding curve. TrmD was diluted to a final concentration of 50 μM, and DMSO was added to a final concentration of 5% to match the buffers. ITC measurements were performed using a MicroCal PEAQ-ITC Automated workstation (Malvern Panalytical) equipped with a 200 μL Hastelloy cell and a 40 μL injection syringe. […] Data were analyzed and fitted using the MicroCal PEAQ-ITC Analysis Software 1.21 and plotted in GraphPad Prism 8.0.1.

S. aureus TrmD [3] = target: T1, S. aureus TrmD; test: Isothermal titration calorimetry (ITC) on recombinant S. aureus TrmD
Procedure: as §2

H. influenzae TrmD [4] = target: T2, H. influenzae TrmD; test: Fluorescence polarization (FP) assay, tracer 3 (Cy5TPD), H. influenzae TrmD; conditions: tracer, enzyme concentration varied; read-out: KD of fluorescent tracer, H. influenzae TrmD (FP)
Procedure: as §1

S. aureus TrmD [5] = target: T1, S. aureus TrmD; test: Fluorescence polarization (FP) assay, tracer 4, S. aureus TrmD; conditions: enzyme concentration varied, read-out: KD of fluorescent tracer, S. aureus TrmD (FP)
[6] = KD S. aureus TrmD (FP displacement assay), apparent affinity, purified compound, 500 nM TrmD, 10 nM tracer 4
[7] = apparent affinity, purified compound, 500 nM TrmD, 10 nM tracer 4, read-out: KD S. aureus TrmD (FP displacement assay)

Row | Compound | Kd (S. aureus TrmD [1]; [6]) [µM] | Kd (H. influenzae TrmD [2]) [µM] | Kd (S. aureus TrmD [3]) [µM] | Kd (S. aureus TrmD [5]) | Kd (S. aureus TrmD [1]; [7]) [µM] | other results
1 | Oc1ncnc2scc(-c3ccccc3)c12 [Compound 1, O=C1NC=NC2=C1C(C3=CC=CC=C3)=CS2] | 28.6 | 24.3 ± 6.16 | 19.8 | – | – | –
2 | NCc1ccc(CNC(=O)c2csc3nc[nH]c(=O)c23)cc1 [Compound 2, N-(4-(Aminomethyl)benzyl)-4-oxo-3,4-dihydrothieno[2,3-d]pyrimidine-5-carboxamide] | 13.8 | 4.55 ± 0.31 | 12.9 | – | – | –
3 | C#Cc1c[nH]c2nc[nH]c(=O)c12 [Compound 7, 5-Ethynyl-3,7-dihydro-4H-pyrrolo[2,3-d]pyrimidin-4-one] | – | – | – | – | > 100 | –
4 | CC(=O)NCCCn1cc(-c2c[nH]c3nc[nH]c(=O)c23)nn1 [Compound 8a, N-(3-(4-(4-Oxo-4,7-dihydro-3H-pyrrolo[2,3-d]pyrimidin-5-yl)-1H-1,2,3-triazol-1-yl)propyl)acetamide] | – | – | – | – | 10.4 ± 1.8 | Kd (S. aureus TrmD [1]; crude nanomole-scale reaction mixture, read-out: KD(in situ) S. aureus TrmD (FP displacement assay)): 4.98 µM

Further lines, with some results ahead:

Row | Kd (S. aureus TrmD [1]; [6]) [µM] | Kd (H. influenzae TrmD [2]) [µM] | Kd (S. aureus TrmD [3]) [µM] | Kd (S. aureus TrmD [5]) | Kd (S. aureus TrmD [1]; [7]) [µM] | Compound | other results
5 | – | – | – | 23.3 µM | – | CN1/C(=C/C=C/C=C/C2=[N+](CCCCCC(=O)NCCCn3cc(CNC(=O)c4csc5nc[nH]c(=O)c45)nn3)c3ccccc3C2(C)C)C(C)(C)c2ccccc21 [Compound 3, reference compound] | Kd (H. influenzae TrmD [4]): 2 µM and 2.02 µM
6 | – | – | – | 0.659 µM and 0.66 µM | – | CN1/C(=C/C=C/C=C/C2=[N+](CCCCCC(=O)NCCCn3cc(-c4c[nH]c5nc[nH]c(=O)c45)nn3)c3ccccc3C2(C)C)C(C)(C)c2ccccc21 [Compound 4, 3,3-Dimethyl-1-(6-oxo-6-((3-(4-(4-oxo-4,7-dihydro-3H-pyrrolo[2,3-d]pyrimidin-5-yl)-1H-1,2,3-triazol-1-yl)propyl)amino)hexyl)-2-((1E,3E)-5-((E)-1,3,3-trimethylindolin-2-ylidene)penta-1,3-dien-1-yl)-3H-indol-1-ium trifluoroacetate] | –
